Assay results from ChEMBL document CHEMBL1201862, “PubChem BioAssay data set” (2004).
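Cultured in 96-well plates, cells were exposed to test compound for 48 hours across five concentrations. GI50 is the concentration that inhibits growth by half.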 The source made the active and inactive calls. No stated cut-off is given here; in the data, active = GI50 up to about 1.1 µM and inactive = higher.

Tests used:
Experiment in all cases: NCI tumour cell line growth inhibition, 48 h
[1] = test system: UACC-257
[2] = test system: RPMI-8226
[3] = test system: RXF 393
[4] = test system: Malme-3M
[5] = test system: K562
[6] = test system: PC-3
[7] = test system: SF-295
[8] = test system: COLO 205
[9] = test system: SK-OV-3
[10] = test system: SR
[11] = test system: ACHN
[12] = test system: HCT-116
[13] = test system: SK-MEL-5
[14] = test system: LOX IMVI
[15] = test system: TK-10
[16] = test system: SNB-75
[17] = test system: CCRF-CEM
[18] = test system: UO-31
[19] = test system: Hs-578T
[20] = test system: MCF7

| SMILES | GI50 [1] | GI50 [2] | GI50 [3] | GI50 [4] | GI50 [5] | GI50 [6] | GI50 [7] | GI50 [8] | GI50 [9] | GI50 [10] | GI50 [11] | GI50 [12] | GI50 [13] | GI50 [14] | GI50 [15] | GI50 [16] | GI50 [17] | GI50 [18] | GI50 [19] | GI50 [20] |
| --- | --- | --- | --- | --- | --- | --- | --- | --- | --- | --- | --- | --- | --- | --- | --- | --- | --- | --- | --- | --- |
| C(=N\c1ccc(-c2nc3ccccc3s2)cc1)/c1cccs1 | 38.2 µM (inactive) | 33.4 µM (inactive) | 27.5 µM (inactive) | 68.5 µM (inactive) | 34.8 µM (inactive) | 38.1 µM (inactive) | 23.2 µM (inactive) | 42.1 µM (inactive) | 81.8 µM (inactive) | 39.6 µM (inactive) | 35.8 µM (inactive) | 52.1 µM (inactive) | 30.4 µM (inactive) | 46.1 µM (inactive) | 30.5 µM (inactive) | 29.9 µM (inactive) | 0.617 µM (active) | 43.9 µM (inactive) | 41.7 µM (inactive) |  |
| CNC(=O)N(CCC#N)[C@H]1CCCC[C@@H]1N(C(=O)NC)c1ccccc1 | > 100 µM (inactive) | > 100 µM (inactive) | > 100 µM (inactive) | > 100 µM (inactive) | > 100 µM (inactive) | > 100 µM (inactive) | > 100 µM (inactive) | > 100 µM (inactive) | > 100 µM (inactive) | > 100 µM (inactive) | > 100 µM (inactive) | > 100 µM (inactive) | > 100 µM (inactive) | > 100 µM (inactive) | > 100 µM (inactive) | > 100 µM (inactive) | > 100 µM (inactive) | > 100 µM (inactive) |  | > 100 µM (inactive) |
| Cc1cc(Br)ccc1NC1=CC(=O)C(=O)c2ccccc21 | 15.9 µM (inactive) | 36.9 µM (inactive) | 30.5 µM (inactive) | 24.3 µM (inactive) | 51.4 µM (inactive) |  | 38.5 µM (inactive) | 31.6 µM (inactive) | 49.3 µM (inactive) | 15.5 µM (inactive) | 36.4 µM (inactive) | 52.7 µM (inactive) | 20 µM (inactive) | 21.4 µM (inactive) | 99.8 µM (inactive) | 41.1 µM (inactive) | 35.1 µM (inactive) | 94.6 µM (inactive) |  |  |
| CCOC(=O)CC1(N)CC2c3ccccc3OC(=O)C2C(=O)N1 (centres undefined) | > 100 µM (inactive) | > 100 µM (inactive) | > 100 µM (inactive) | > 100 µM (inactive) | > 100 µM (inactive) | > 100 µM (inactive) |  | > 100 µM (inactive) |  | > 100 µM (inactive) | > 100 µM (inactive) | > 100 µM (inactive) |  | > 100 µM (inactive) | > 100 µM (inactive) | > 100 µM (inactive) | > 100 µM (inactive) | > 100 µM (inactive) | > 100 µM (inactive) |  |
| Oc1ccc2ccccc2c1/N=N\c1cccc2ccccc12 | > 100 µM (inactive) | > 100 µM (inactive) | > 100 µM (inactive) |  | > 100 µM (inactive) | > 100 µM (inactive) | > 100 µM (inactive) | > 100 µM (inactive) | > 100 µM (inactive) | < 0.01 µM (active) | > 100 µM (inactive) | > 100 µM (inactive) | > 100 µM (inactive) | > 100 µM (inactive) | > 100 µM (inactive) | > 100 µM (inactive) | 58.1 µM (inactive) | > 100 µM (inactive) | > 100 µM (inactive) |  |
